Results taken from patent US8034904B2, “Anti-IGF-I receptor antibody” (Immunogen Inc., priority 2002, dated 2011).
Numbering of substitutions follows the chain as printed.

Experiments:
[1] = Bhuyan et al., 1982; cited from earlier work
[2] = system: Human non-small cell lung cancer Calu-6 xenografts; type: in vivo; details: established 100 mm^3 Calu-6 xenografts; EM164 0.8 mg/mouse i.v. x6; taxol 15 mg/kg i.p. x5
Excerpt: Human non-small cell lung cancer Calu-6 xenografts were established in immunodeficient mice by subcutaneous injections of 1×10^7 Calu-6 cells.

[3] = system: multiple myeloma; details: previously untreated stages I or II myeloma; cited from earlier work
[4] = system: NCI-H596 cells; test: Growth and survival of NCI-H596 cells (MTT assay); type: cell-based, human; details: 10 ng/mL IGF-I, 3- to 4-day
Protocol: (§1) Several human tumor cell lines were tested in serum-free conditions for their growth and survival response to IGF-I. These cell lines were treated with EM164 antibody in the presence of IGF-I, IGF-II, or serum, and their growth and survival responses were measured using an MTT assay after 2-4 days. Approximately 1500 cells were plated in a 96-well plate in regular medium with serum, which was replaced with serum-free medium the following day (either serum-free RPMI medium supplemented with transferrin and BSA, or phenol-red free medium as specified by Dufourny, B. et al., 1997, J. Biol. Chem., 272, 31163-31171). After one day of growth in serum-free medium, the cells were incubated with about 75 μL of 10 μg/mL antibody for 30 min.-3 h, followed by the addition of 25 μL of IGF-I (or IGF-II or serum) solution to obtain a final concentration of 10 ng/mL IGF-I, or 20 ng/mL IGF-II, or 0.04-10% serum. In some experiments, the cells were stimulated first with IGF-I for 15 min before the addition of EM164 antibody, or both IGF-I and EM164 antibody were added together. The cells were then allowed to grow for another 2-3 days. A solution of MTT (3-(4,5)-dimethylthiazol-2-yl)-2,5-diphenyltetrazolium bromide; 25 μL of a 5 mg/mL solution in PBS) was then added and the cells were returned to the incubator for 2-3 h. The medium was then removed and replaced by 100 μL DMSO, mixed, and the absorbance of the plate was measured at 545 nm.

[5] = system: HT-29 colon cancer cells; test: Growth and survival of HT-29 cells (MTT assay, colony formation); type: cell-based, human; details: HT-29; 10 ng/mL IGF-I, 3- to 4-day
Protocol: as §1

[6] = system: SK-LU-1 cells; test: Growth and survival of SK-LU-1 cells (MTT assay); type: cell-based, human; details: 10 ng/mL IGF-I, 3- to 4-day
Protocol: as §1

[7] = system: A 549 cells; test: Growth and survival of A 549 cells (MTT assay); type: cell-based, human; details: 10 ng/mL IGF-I, 3- to 4-day
Protocol: as §1, with “A solution of MTT (3-(4,5)-dimethylthiazol-2-yl)-2,5-diphenyltetrazolium bromide; 25 μL of a 5 mg/mL solution in PBS) was then added and the cells were returned to the incubator for 2-3 h.” left out

[8] = system: HT-3 (cervical) cells; test: Growth and survival of HT-3 cells (MTT assay); type: cell-based, human; details: 10 ng/mL IGF-I, 3- to 4-day
Protocol: as §1, with “A solution of MTT (3-(4,5)-dimethylthiazol-2-yl)-2,5-diphenyltetrazolium bromide; 25 μL of a 5 mg/mL solution in PBS) was then added and the cells were returned to the incubator for 2-3 h.” left out

[9] = system: NCI-H838 (lung) cells; test: Growth and survival of NCI-H838 cells (MTT assay); type: cell-based, human; details: NCI-H838 (lung); 10 ng/mL IGF-I, 3- to 4-day
Protocol: as §1

[10] = system: MCF-7 (breast) cells; test: Growth and survival of MCF-7 cells (MTT assay); type: cell-based, human
Protocol: as §1

[11] = system: SK-N-SH (neuroblastoma) cells; test: Growth and survival of SK-N-SH cells (MTT assay); type: cell-based, human; details: 10 ng/mL IGF-I, 3- to 4-day
Protocol: as §1

[12] = system: Calu-6 non-small cell lung cancer cells; test: Growth and survival of Calu-6 cells (MTT assay); type: cell-based, human; details: 10 ng/mL IGF-I, 3- to 4-day
Protocol: as §1

[13] = system: A 431 (epidermoid) cells; test: Growth and survival of A 431 cells (MTT assay); type: cell-based, human; details: 10 ng/mL IGF-I, 3- to 4-day
Protocol: as §1

[14] = system: SaOS-2 (osteosarcoma) cells; test: Growth and survival of SaOS-2 cells (MTT assay); type: cell-based, human; details: 10 ng/mL IGF-I, 3- to 4-day
Protocol: as §1

[15] = system: Colo 205 (colon) cells; test: Growth and survival of Colo 205 cells (MTT assay); type: cell-based, human; details: 10 ng/mL IGF-I, 3- to 4-day
Protocol: as §1

[16] = system: MCF-7 cells; test: Cell cycle analysis of MCF-7 cells (propidium iodide, flow cytometry); type: cell-based, human; details: IGF-I 20 ng/mL with or without EM164 20 μg/mL, 1 day
Protocol: The EM164 antibody caused growth arrest of cells in G0/G1 phase of cell cycle and abrogated the mitogenic effect of IGF-I. For cell cycle analysis, MCF-7 cells were treated with IGF-I (20 ng/mL) in the presence or absence of EM164 (20 μg/mL) for 1 day and then analyzed by propidium iodide staining and flow cytometry.

[17] = system: RD (rhabdomyocarcoma) cells; test: Growth and survival of RD cells (MTT assay); type: cell-based, human; details: 10 ng/mL IGF-I, 3- to 4-day
Protocol: as §1

[18] = system: SK-Mel-37 cells; test: Growth and survival of SK-Mel-37 cells (MTT assay); type: cell-based, human; details: 10 ng/mL IGF-I, 3- to 4-day
Protocol: as §1, with “A solution of MTT (3-(4,5)-dimethylthiazol-2-yl)-2,5-diphenyltetrazolium bromide; 25 μL of a 5 mg/mL solution in PBS) was then added and the cells were returned to the incubator for 2-3 h.” left out

[19] = system: A 375 (melanoma) cells; test: Growth and survival of A 375 cells (MTT assay); type: cell-based, human; details: 10 ng/mL IGF-I, 3- to 4-day
Protocol: as §1

[20] = system: biotinylated full-length human IGF-I receptor; test: ELISA binding competition of humanized/chimeric versus murine EM164
Protocol: The affinities of the humanized EM164 antibody versions 1.0-1.3 were compared to those of murine EM164 antibody through binding competition assays using biotinylated full-length human IGF-I receptor or myc-epitope tagged truncated IGF-I receptor alpha chain, as described above. Humanized EM164 antibody samples were obtained by transient transfection of the appropriate expression vectors in human embryonic kidney 293T cells, and antibody concentrations were determined by ELISA using purified humanized antibody standards. For ELISA binding competition measurements, mixtures of humanized antibody samples and various concentrations of murine EM164 antibody were incubated with indirectly captured biotinylated full-length IGF-I receptor or myc-epitope tagged truncated IGF-I receptor alpha chain. After equilibration, the bound humanized antibody was detected using a goat-anti-human-Fab′2-antibody-horseradish peroxidase conjugate. Plots of ([bound murine Ab]/[bound humanized Ab]) vs ([murine Ab]/[humanized Ab]), which theoretically yield a straight line with slope=(Kd humanized Ab/Kd murine Ab), were used to determine the relative affinities of the humanized and murine antibodies.
An Immulon-2HB ELISA plate was coated with 100 μL of 5 μg/mL streptavidin per well in carbonate buffer at ambient temperature for 7 h. […] The wells were then washed with TBS-T buffer and incubated with goat-anti-human-Fab′2-antibody-horseradish peroxidase conjugate for 1 h (100 μL; 1 μg/mL in blocking buffer), followed by washes and detection using ABTS/H2O2 substrate at 405 nm.

[21] = biological target: biotinylated human IGF-I receptor; test: ELISA binding titration (Kd) with biotinylated IGF-I receptor; details: ELISA titration, non-linear regression for one-site binding; read-out: dissociation constant (Kd)
Protocol: The wells were next washed with TBS-T buffer and incubated with goat-anti-mouse-IgGH+L-antibody-horseradish peroxidase conjugate (100 μL; 0.5 μg/mL in blocking buffer), followed by washes and detection using ABTS/H2O2 substrate at 405 nm. The value of Kd was estimated by non-linear regression for one-site binding.
A similar binding titration was carried out using the Fab fragment of EM164 antibody, prepared by papain digestion of the antibody as described by E. Harlow and D. Lane (“Using Antibodies: A Laboratory Manual”; 1999, Cold Spring Harbor Laboratory Press, New York).

Chain of biotinylated full-length human IGF-I receptor (P08069 31-498 limits assumed): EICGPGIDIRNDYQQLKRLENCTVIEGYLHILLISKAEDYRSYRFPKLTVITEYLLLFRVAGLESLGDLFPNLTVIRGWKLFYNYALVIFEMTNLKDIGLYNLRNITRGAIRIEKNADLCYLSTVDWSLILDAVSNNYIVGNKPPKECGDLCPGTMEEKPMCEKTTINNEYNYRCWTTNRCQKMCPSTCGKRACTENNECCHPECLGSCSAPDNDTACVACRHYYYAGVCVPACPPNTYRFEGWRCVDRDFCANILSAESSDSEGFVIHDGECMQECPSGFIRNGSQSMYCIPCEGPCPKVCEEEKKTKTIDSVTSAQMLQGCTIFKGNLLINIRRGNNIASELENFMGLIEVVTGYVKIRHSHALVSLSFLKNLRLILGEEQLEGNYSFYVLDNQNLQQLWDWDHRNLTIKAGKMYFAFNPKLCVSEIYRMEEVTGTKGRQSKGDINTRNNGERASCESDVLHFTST
Chain of biotinylated human IGF-I receptor (P08069 31-736 limits assumed): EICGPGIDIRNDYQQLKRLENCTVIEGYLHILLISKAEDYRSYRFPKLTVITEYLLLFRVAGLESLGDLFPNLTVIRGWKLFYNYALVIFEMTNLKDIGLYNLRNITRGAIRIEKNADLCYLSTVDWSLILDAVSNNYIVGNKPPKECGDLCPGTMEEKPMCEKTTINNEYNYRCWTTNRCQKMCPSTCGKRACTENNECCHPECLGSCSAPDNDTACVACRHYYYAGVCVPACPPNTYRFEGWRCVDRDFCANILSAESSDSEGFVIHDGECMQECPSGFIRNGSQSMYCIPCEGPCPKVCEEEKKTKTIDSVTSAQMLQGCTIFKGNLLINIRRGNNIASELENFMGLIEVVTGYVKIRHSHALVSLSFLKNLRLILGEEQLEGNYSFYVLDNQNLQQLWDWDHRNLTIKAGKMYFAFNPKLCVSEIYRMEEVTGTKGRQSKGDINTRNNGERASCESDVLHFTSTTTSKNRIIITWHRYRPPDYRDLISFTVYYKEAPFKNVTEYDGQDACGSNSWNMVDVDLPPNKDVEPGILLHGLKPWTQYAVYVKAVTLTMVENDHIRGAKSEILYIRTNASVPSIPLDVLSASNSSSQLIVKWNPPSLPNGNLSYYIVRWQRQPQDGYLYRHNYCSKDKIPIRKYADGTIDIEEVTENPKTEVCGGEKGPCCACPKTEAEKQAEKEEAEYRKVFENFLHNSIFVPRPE
Chain of biotinylated human IGF-I receptor (P08069 741-935 limits assumed): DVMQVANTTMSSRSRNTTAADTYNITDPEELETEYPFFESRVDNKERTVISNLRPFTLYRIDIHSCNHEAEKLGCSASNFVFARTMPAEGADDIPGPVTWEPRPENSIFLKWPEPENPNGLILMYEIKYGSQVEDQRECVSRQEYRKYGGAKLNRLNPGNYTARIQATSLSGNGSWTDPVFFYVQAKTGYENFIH

COc1c(O)c2c(c3cc(C(=O)N4CCc5c4c(O)c(OC)c4[nH]c(C(=O)N6CC7CC78C6=CC(=O)c6[nH]cc(C)c68)cc54)[nH]c13)CCN2C(N)=O (stereo not shown) [CC-1065]
potency in vitro relative to doxorubicin, methotrexate and vincristine [1]: about 1000 fold

CC(=O)O[C@H]1C(=O)[C@@]2(C)[C@H]([C@H](OC(=O)c3ccccc3)[C@]3(O)C[C@H](OC(=O)[C@H](O)[C@@H](NC(=O)c4ccccc4)c4ccccc4)C(C)=C1C3(C)C)[C@]1(OC(C)=O)CO[C@@H]1C[C@@H]2O [taxol, reference compound]
growth of tumors [2]: effective until day 14

IFN-α
patients who responded to treatment [3]: 7 of 14

IGF-I: insulin-like growth factor-I, ligand of the IGF-I receptor used as growth stimulant [reference compound]
Fold growth response to IGF-I (MTT assay: ratio for IGF-I treated vs untreated cells in serum-free medium) [4]: 1.4 | Fold growth response to IGF-I (MTT assay: ratio for IGF-I treated vs untreated cells in serum-free medium) [5]: 1.5 | Fold growth response to IGF-I (MTT assay: ratio for IGF-I treated vs untreated cells in serum-free medium) [6]: 1.4 | Fold growth response to IGF-I (MTT assay: ratio for IGF-I treated vs untreated cells in serum-free medium) [7]: 1.2 | Fold growth response to IGF-I (MTT assay: ratio for IGF-I treated vs untreated cells in serum-free medium) [8]: 2 | Fold growth response to IGF-I (MTT assay: ratio for IGF-I treated vs untreated cells in serum-free medium) [9]: 3 | Fold growth response to IGF-I (MTT assay: ratio for IGF-I treated vs untreated cells in serum-free medium) ([10]; MCF-7 (breast), 10 ng/mL IGF-I, 3- to 4-day): 1.7-2.8 | Fold growth response to IGF-I (MTT assay: ratio for IGF-I treated vs untreated cells in serum-free medium) [11]: 2 | Fold growth response to IGF-I (MTT assay: ratio for IGF-I treated vs untreated cells in serum-free medium) [12]: 1.6-1.8 | Fold growth response to IGF-I (MTT assay: ratio for IGF-I treated vs untreated cells in serum-free medium) [13]: 2.2 | Fold growth response to IGF-I (MTT assay: ratio for IGF-I treated vs untreated cells in serum-free medium) [14]: 2.5 | Fold growth response to IGF-I (MTT assay: ratio for IGF-I treated vs untreated cells in serum-free medium) [15]: 2.3 | cells in the G0/G1 phase [16]: 50% | cells in the S phase [16]: 41% | Fold growth response to IGF-I (MTT assay: ratio for IGF-I treated vs untreated cells in serum-free medium) [17]: 1.7 | Fold growth response to IGF-I (MTT assay: ratio for IGF-I treated vs untreated cells in serum-free medium) [18]: 1.4 | Fold growth response to IGF-I (MTT assay: ratio for IGF-I treated vs untreated cells in serum-free medium) [19]: 1.6

B1: chimeric version of EM164 antibody with 92F→C mutation: chimeric version of EM164 antibody with 92F→C mutation in heavy chain (antibody, V domains shown)
VH: QVQLQQSGAELVKPGASVKLSCKASGYTFTSYWMHWVKQRPGQGLEWIGEINPSNGRTNYNEKFKRKATLTVDKSSSTAYMQLSSLTSEDSAVYYCARGRPDYYGSSKWYFDVWGAGTTVTVSS
VL: DVLMTQTPLSLPVSLGDQASISCRSSQSIVHSNVNTYLEWYLQKPGQSPKLLIYKVSNRFSGVPDRFSGSGSGTDFTLRISRVEAEDLGIYYCFQGSHVPPTFGGGTKLEIK
lower affinity than murine EM164 antibody for binding to IGF-I receptor [20]: 3 fold | slope in binding competition with murine EM164 antibody ([20]; similar binding competition): about 3

B2: Fab fragment of EM164 antibody: Fab fragment of EM164 antibody, prepared by papain digestion (antibody, V domains shown)
VH: QVQLQQSGAELVKPGASVKLSCKASGYTFTSYWMHWVKQRPGQGLEWIGEINPSNGRTNYNEKFKRKATLTVDKSSSTAYMQLSSLTSEDSAVYYFARGRPDYYGSSKWYFDVWGAGTTVTVS
VL: DVLMTQTPLSLPVSLGDQASISCRSSQSIVHSNVNTYLEWYLQKPGQSPKLLIYKVSNRFSGVPDRFSGSGSGTDFTLRISRVEAEDLGIYYCFQGSHVPPTFGGGTKLEIKR
Kd [21]: 300 pM

B3: humanized EM164 v1.0: resurfaced EM164 with all 10 human surface residues (light chain aa3 V, aa45 R) (antibody, V domains shown)
VH: B2 VH with Q5V, L11V, E62Q, K65Q, R66G, A116Q
VL: B2 VL with L3V, Q18P, K50R, S72A
slope (=Kd humanized Ab / Kd murine Ab) ([20]; biotinylated IGF-I receptor, FIG. 11, r^2=0.996): 0.52 | inhibition of serum-stimulated growth and survival of MCF-7 cells, compared with murine EM164 [10]: similar
